Patent EP1272220B2, “FORMULATION FOR THE PREVENTION OF CARDIOVASCULAR DISEASE” (Wald, Nicholas John, priority 2000, dated 2001)
Marks after values point to notes of the source that are not given here.

How the values were obtained:
[1] = randomised trials; platelet function not measured; cited from earlier work
[2] = Expected reduction in risk of ischaemic heart disease and stroke, from analyses of cohort studies and randomised controlled trials; format: in vivo, persons
Text: This combined estimate is based on the fact that the effects on the four different risk factors are unrelated and so the expected effects of changing each one will be independent of each other. This expectation is supported by two classes of evidence. […] For example the ratio of the risk of a disease event in persons with high blood pressure and the risk in persons with low blood pressure is similar, irrespective of the values of serum cholesterol and other risk factors. Second, some randomised clinical trials have used combinations of two of the drugs (for example beta blockers and aspirin) in patients with ischaemic heart disease and have shown that the effects are independent (that is, the relative risk in patients who took two drugs (compared with the risk in those who took none) was similar to the relative risk in persons taking one of the drugs multiplied by the relative risk in persons taking the other drug). Accordingly, the effect of the different drugs in combination in Table 3 has been calculated by multiplying the effects of each as shown in footnotes h and j. Table 3 - The constituent drugs in the proposed combined formulation, the cardiovascular risk factors that each alter, the amount by which each factor would be changed, and the resulting expected reduction in risk of ischaemic heart disease and stroke. [table]

[3] = Prevalence of adverse effects in randomised placebo controlled trials (treated minus control); format: in vivo, persons; conditions: preferred daily dose: Hydrochlorothiazide 12.5 mg, Atenolol 25 mg, Enalapril 5 mg, Aspirin 75 mg; for Prevalence of any adverse effect in randomised trials (treated minus control) / Prevalence of serious adverse effects (those that warranted withdrawal from randomised trial) (treated minus control): Atorvastatin 10 mg, Folic acid 0.8 mg
Text: The dose of each medication has been chosen to maximise the ratio of benefit to hazard. It is recognised that some persons taking a combination of six drugs would develop adverse effects that were unacceptable. The adverse effects attributable to each of the component medications would be made clear to persons taking the combined formulation and alternative formulations omitting one or more of the component ingredients, with orwithout a substitute ingredient, would be available for persons unable to tolerate one component. […]

[4] = Analysis of blood pressure reduction according to dose in 187 randomised placebo controlled trials of thiazide diuretics, beta-blockers and ACE inhibitors; format: in vivo, persons; conditions: Hydrochlorothiazide 12.5 mg + Atenolol 25 mg + Enalapril 5 mg daily, combined effect, half standard dose
Text: For drugs used to lower blood pressure, the dose of an active principal is below the lower therapeutic dosage for the indication of the active principal. As used herein, the term "therapeutic dosage" is intended to referto the commonly used dose in clinical practice for the treatment of high levels of the risk factor or for the treatment of cardiovascular disease by the separate active principal. The most preferred doses for blood pressure lowering agents are half of the doses at the lower end of the therapeutic range recommended in the British National Formulary of March 2000. This is in order to maximise the therapeutic benefit of the combination of agents, while minimising the risks of adverse effects of the individual agents. […] Most preferably, the dose of a blood pressure lowering agent is about half the recommended dose (or, where a range of doses is given, half of the recommended dose at the lower end of the recommended therapeutic range) for the blood pressure lowering agent.
The corresponding reductions in incidence of ischaemic heart disease and stroke are those to be expected from the blood pressure reductions, from published analyses of cohort studies and randomised controlled trials of blood pressure and ischaemic heart disease and stroke (references 1, 5).

[5] = Atorvastatin 10 mg daily; published placebo controlled trials (reference 200); cited from earlier work
[6] = Folic acid 0.8 mg daily; cited from earlier work
[7] = single drug at preferred daily dose: Atorvastatin 10 mg, Aspirin 75 mg (14 trials of 50-100 mg daily), Folic acid 0.8 mg
[8] = Hydrochlorothiazide 12.5 mg + Atenolol 25 mg + Enalapril 5 mg daily combined, expected from blood pressure reduction of 12 mmHg diastolic

Structure (SMILES)	incidence of heart attacks and stroke [1]	Expected reduction in risk of: ischaemic heart disease [2, 7]	Expected reduction in risk of: stroke [2, 7]	Commonest adverse effects [3]	Prevalence of any adverse effect in randomised trials (treated minus control) [3]	Prevalence of serious adverse effects (those that warranted withdrawal from randomised trial) (treated minus control) [3]	Associated physiological variable (reduction produced by drug): Blood pressure, diastolic [4]	Expected reduction in risk of: ischaemic heart disease [2, 8] [%^b]	Expected reduction in risk of: stroke [2, 8] [%^b]	Associated physiological variable (reduction produced by drug): Serum cholesterol [5]	Associated physiological variable (reduction produced by drug): Plasma/serum homocysteine [6]
CC(=O)Oc1ccccc1C(=O)O [Aspirin]	reduces the incidence of heart attacks and stroke in both high risk and low risk persons	38%^e	15%^e	bleeding, indigestion	1.8%^b	0.7%^b (mainly rectal or urinary bleeding)	–	–	–	–	–
CC(C)NCC(O)COc1ccc(CC(N)=O)cc1 (stereo not drawn) [Atenolol]	–	–	–	cold extremities, fatigue, dizziness	5.6%^a	0.9%^a	(12 mmHg diastolic)^a	43	63	–	–
CCOC(=O)[C@H](CCc1ccccc1)N[C@@H](C)C(=O)N1CCC[C@H]1C(=O)O [Enalapril]	–	–	–	cough	2.1%^a	0.2%^a	(12 mmHg diastolic)^a	43	63	–	–
CC(C)c1c(C(=O)Nc2ccccc2)c(-c2ccccc2)c(-c2ccc(F)cc2)n1CC[C@@H](O)C[C@@H](O)CC(=O)O [Atorvastatin]	–	61 %^d	50%^d	–	0.1%	<0.1%	–	–	–	Serum cholesterol (1.8 mmol/I)°	–
Nc1nc2ncc(CNc3ccc(C(=O)N[C@@H](CCC(=O)O)C(=O)O)cc3)nc2c(=O)[nH]1 [Folic acid]	–	15%^g	–	–	<0.1%	<0.1%	–	–	–	–	Plasma/serum homocysteine (3 µmol/I)^f
NS(=O)(=O)c1cc2c(cc1Cl)NCNS2(=O)=O [Hydrochlorothiazide]	–	–	–	dizziness, impotence, nausea	1.4%^a	0.1%^a	(12 mmHg diastolic)^a	43	63	–	–
